From US20230339900A1, “CASEIN KINASE 1 DELTA MODULATORS” (Janssen Pharmaceutica NV, priority 2020, published 2023) come the findings set out here.

Assay [1] addresses human recombinant GST cleaved CSNK1D (Homo sapiens (Human), UniProt P48730). The assay is described as follows: Purified enzyme assay (ADP-Glo Kinase Assay). Type of assay: biochemical. The note with it: 2 nM CSNK1D, peptide substrate 150 μM, ATP 20 μM, 45 minutes room temperature. (In ADP-Glo the light output rises with the ADP produced.)
In assay [2] the target is human CSNK1D tagged with nanoluciferase (Homo sapiens (Human), UniProt P48730). The assay is described as follows: Whole Cell nBRET CSNK1D Binding Assay. Conditions: living CHO cells stably expressing human CSNK1D-nanoluciferase; NanoBret tracer 130 nM; 2 hours 37° C.; read-out: CSNK1D BRET IC50. In outline: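 IC50 values come from milliBRET ratios ((E630/E450)*1000) fitted against log compound concentration. Tracer displacement was run in living CHO cells stably expressing NanoLuc-fused CSNK1D, with dosed compounds and 130 nM tracer incubated 2 h at 37 °C in serum-free OptiMEM before substrate addition and donor/acceptor reading.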
For orientation: BRET reads energy transfer from a luciferase to a nearby fluorophore.

In general, AC50 refers to the concentration at which the activity in the assay is half-maximal. A word on the IC50: it is the point on the concentration scale where inhibition reaches its midpoint.

Chain of human recombinant GST cleaved CSNK1D (P48730 whole entry, the tested form may be a part): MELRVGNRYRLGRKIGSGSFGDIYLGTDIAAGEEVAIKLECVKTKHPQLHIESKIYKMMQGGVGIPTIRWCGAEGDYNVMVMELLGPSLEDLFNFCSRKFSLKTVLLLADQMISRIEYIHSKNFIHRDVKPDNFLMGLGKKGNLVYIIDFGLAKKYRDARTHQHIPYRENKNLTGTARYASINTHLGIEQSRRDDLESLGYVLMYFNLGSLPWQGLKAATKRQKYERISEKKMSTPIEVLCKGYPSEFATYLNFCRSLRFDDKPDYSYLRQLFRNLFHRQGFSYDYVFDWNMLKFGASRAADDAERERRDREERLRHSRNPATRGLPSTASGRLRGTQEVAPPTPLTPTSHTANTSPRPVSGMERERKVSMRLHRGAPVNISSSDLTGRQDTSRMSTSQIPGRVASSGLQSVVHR
Chain of human CSNK1D tagged with nanoluciferase (P48730 whole entry, the tested form may be a part): as above

As to `Cn1cc(-c2ccnc3ccsc23)c(-c2ccc(F)cn2)n1` [Example 118, 7-(3-(5-Fluoropyridin-2-yl)-1-methyl-1H-pyrazol-4-yl)thieno[3,2-b]pyridine], the AC50 in assay [1] is 24 nM. Besides, in assay [2], the IC50 amounted to 376 nM.
The corresponding values for `Cc1cc(-c2cn(C)nc2-c2ccc(F)c(C)n2)c2cn[nH]c2n1` [Example 40, 4-(3-(5-Fluoro-6-methylpyridin-2-yl)-1-methyl-1H-pyrazol-4-yl)-6-methyl-1H-pyrazolo[3,4-b]pyridine] are 19 nM and 288 nM.
The corresponding values for `Cn1cc(-c2cc(N)nc3[nH]ccc23)c(-c2ccc(F)cn2)n1` [Example 119, 4-[3-(5-Fluoro-2-pyridyl)-1-methyl-pyrazol-4-yl]-1H-pyrrolo[2,3-b]pyridin-6-amine] are 2 nM and 32 nM.
For `Cn1cc(-c2ccnc3cc(OC(F)(F)F)ccc23)c(-c2ccc(F)cn2)n1` [Example 109, 4-[3-(5-Fluoro-2-pyridyl)-1-methyl-pyrazol-4-yl]-7-(trifluoromethoxy)quinoline], the AC50 in assay [1] came to 41 nM. Also, in assay [2], the IC50 was 468 nM.
The corresponding values for `Cn1cc(-c2ccnc3c2ccn3C)c(-c2ccc(F)cn2)n1` [Example 144, 4-[3-(5-Fluoro-2-pyridyl)-1-methyl-pyrazol-4-yl]-1-methyl-pyrrolo[2,3-b]pyridine] are 77 nM and 1720 nM.
Turning to `Fc1ccc(-c2nn(C3COC3)cc2-c2ccnc3[nH]ccc23)nc1` [Example 72, 4-[3-(5-Fluoro-2-pyridyl)-1-(oxetan-3-yl)pyrazol-4-yl]-1H-pyrrolo[2,3-b]pyridine], the half-maximal activity concentration (AC50) in assay [1] is 8 nM. Further, in assay [2], the IC50 was 136 nM.
On the same counts, the results for `Cn1cc(-c2ccnc3[nH]ccc23)c(-c2cc(F)ccn2)n1` [Example 27, 4-[3-(4-Fluoro-2-pyridyl)-1-methyl-pyrazol-4-yl]-1H-pyrrolo[2,3-b]pyridine] are 4 nM and 178 nM.
On the same counts, the results for `Cc1cc2c(-c3cn(C)nc3-c3ccc(F)cn3)ccnc2[nH]1` [Example 81, 4-(3-(5-Fluoropyridin-2-yl)-1-methyl-1H-pyrazol-4-yl)-2-methyl-1H-pyrrolo[2,3-b]pyridine] are 84 nM and 1460 nM.
The corresponding values for `Cn1cc(-c2ccnc3[nH]cc(C(F)(F)F)c23)c(-c2ccc(F)cn2)n1` [Example 86, 4-(3-(5-Fluoropyridin-2-yl)-1-methyl-1H-pyrazol-4-yl)-3-(trifluoromethyl)-1H-pyrrolo[2,3-b]pyridine] are 48 nM and 1060 nM.
For `Cc1ccc(-c2nn(C)cc2-c2ccnc3[nH]ccc23)nc1` [Example 31, 4-[1-Methyl-3-(5-methyl-2-pyridyl)pyrazol-4-yl]-1H-pyrrolo[2,3-b]pyridine], in assay [1], the AC50 turned out to be 50 nM. Besides, the half-maximal inhibitory concentration (IC50) in assay [2] was determined as 3120 nM.
As for `Cc1cc(-c2cn(CC(C)C)nc2-c2ccc(F)cn2)c2cn[nH]c2n1` [Example 63, 4-(3-(5-Fluoropyridin-2-yl)-1-isobutyl-1H-pyrazol-4-yl)-6-methyl-1H-pyrazolo[3,4-b]pyridine], in assay [1], the AC50 stood at 6 nM. Moreover, in assay [2], the IC50 worked out at 253 nM.
As for `Cn1cc(-c2ccnc3cccnc23)c(-c2ccc(F)cn2)n1` [Example 126, 4-[3-(5-Fluoro-2-pyridyl)-1-methyl-pyrazol-4-yl]-1,5-naphthyridine], in assay [1], the AC50 came out at 26 nM. The IC50 in assay [2] stood at 4620 nM.
On the same counts, the results for `Cc1cccc(-c2nn(C)cc2-c2cc(C)nc3[nH]ncc23)n1` [Example 30, 6-Methyl-4-(1-methyl-3-(6-methylpyridin-2-yl)-1H-pyrazol-4-yl)-1H-pyrazolo[3,4-b]pyridine] are 24 nM and 388 nM.
On the same counts, the results for `Cc1cc(-c2cn(CC(F)(F)F)nc2-c2ccc(F)cn2)c2cn[nH]c2n1` [Example 70, 4-(3-(5-Fluoropyridin-2-yl)-1-(2,2,2-trifluoroethyl)-1H-pyrazol-4-yl)-6-methyl-1H-pyrazolo[3,4-b]pyridine] are 12 nM and 236 nM.
On the same counts, the results for `Cn1cc(-c2ccnc3[nH]ccc23)c(-c2ccc(Cl)cn2)n1` [Example 24, 4-[3-(5-Chloro-2-pyridyl)-1-methyl-pyrazol-4-yl]-1H-pyrrolo[2,3-b]pyridine] are 34 nM and 251 nM.
As to `Cn1cc(-c2ccnc3[nH]ccc23)c(-c2cncn2C)n1` [Example 10, 4-(1-Methyl-3-(1-methyl-1H-imidazol-5-yl)-1H-pyrazol-4-yl)-1H-pyrrolo[2,3-b]pyridine], the AC50 in assay [1] came to 2280 nM. Besides, in assay [2], the IC50 was above 10000 nM.
On the same counts, the results for `Cn1cc(-c2ccnc3cc(Br)cnc23)c(-c2ccc(F)cn2)n1` [Example 153, 3-Bromo-8-[3-(5-fluoro-2-pyridyl)-1-methyl-pyrazol-4-yl]-1,5-naphthyridine] are 39 nM and 579 nM.
On the same counts, the results for `Cn1cc(-c2ccnc3[nH]ccc23)c(-c2ccnnc2)n1` [Example 49, 4-(1-Methyl-3-pyridazin-4-yl-pyrazol-4-yl)-1H-pyrrolo[2,3-b]pyridine] are 451 nM and above 10000 nM.
The corresponding values for `Cc1cc(-c2cn(C)nc2-c2ccc(F)cn2)c2cc[nH]c2n1` [Example 80, 4-[3-(5-Fluoro-2-pyridyl)-1-methyl-pyrazol-4-yl]-6-methyl-1H-pyrrolo[2,3-b]pyridine] are 1 nM and 41 nM.
Take `Cn1cc(-c2ccnc3[nH]ccc23)c(-c2nccn2C)n1` [Example 11, 4-(1-Methyl-3-(1-methyl-1H-imidazol-2-yl)-1H-pyrazol-4-yl)-1H-pyrrolo[2,3-b]pyridine]: in assay [1], the half-maximal activity concentration (AC50) was found to be 111 nM. In addition, the IC50 in assay [2] is 4360 nM.
`Cn1nc(-c2ccc(F)cn2)c(-c2ccnc3[nH]ccc23)c1C1CCC1` [Example 52, 4-(5-Cyclobutyl-3-(5-fluoropyridin-2-yl)-1-methyl-1H-pyrazol-4-yl)-1H-pyrrolo[2,3-b]pyridine]: in assay [1], the AC50 is 13 nM. Moreover, the IC50 in assay [2] came to 227 nM.
As to `Cc1cc(-c2cn(C(F)F)nc2-c2ccc(F)cn2)c2cn[nH]c2n1` [Example 67, 4-(1-(Difluoromethyl)-3-(5-fluoropyridin-2-yl)-1H-pyrazol-4-yl)-6-methyl-1H-pyrazolo[3,4-b]pyridine], in assay [1], the AC50 turned out to be 18 nM. Also, the IC50 in assay [2] is 1310 nM.
The corresponding values for `CCC(=O)Nc1cc(-c2cn(C)nc2-c2ccc(F)cn2)ccn1` [Example 1, N-(4-(3-(5-Fluoropyridin-2-yl)-1-methyl-1H-pyrazol-4-yl)pyridin-2-yl)propionamide] are 5 nM and 107 nM.
The corresponding values for `Cn1cc(-c2c(CC#N)cnc3[nH]ccc23)c(-c2ccc(F)cn2)n1` [Example 90, 2-[4-[3-(5-Fluoro-2-pyridyl)-1-methyl-pyrazol-4-yl]-1H-pyrrolo[2,3-b]pyridin-5-yl]acetonitrile] are 75 nM and 7160 nM.
The corresponding values for `Cn1cc(-c2ccnc3[nH]ccc23)c(-c2cncnc2)n1` [Example 45, 4-(1-Methyl-3-pyrimidin-5-yl-pyrazol-4-yl)-1H-pyrrolo[2,3-b]pyridine] are 746 nM and above 10000 nM.
